ChEMBL document CHEMBL1147274, “Isoflavans and a Stilbene from Wood of the Decay-Resistant Tropical Tree Diphysa robinioides” (1986)
Converted amounts (≈) assume the structure as drawn. The source made the active and inactive calls. The rule behind the calls is not given here.

Assays:
Pseudomonas aeruginosa = assay: Antibacterial activity against Pseudomonas aeruginosa ATCC 27853; type: functional, organism-based
Staphylococcus aureus = assay: Antibacterial activity against Staphylococcus aureus ATCC 13709; type: functional
[1] = system: Salmonella enterica subsp. enterica serovar Gallinarum; assay: Antibacterial activity against Salmonella gallinarum ATCC 9184; type: functional
Candida albicans = assay: […] activity against Candida albicans ATCC 10231; type: functional
Klebsiella pneumoniae = assay: Antibacterial activity against Klebsiella pneumoniae ATCC 10031; type: functional
[2] = system: Mycolicibacterium smegmatis; assay: Antibacterial activity against Mycobacterium smegmatis ATCC 607; type: functional
Escherichia coli = assay: Antibacterial activity against Escherichia coli ATCC 9637; type: functional

Row | MIC (Pseudomonas aeruginosa) | MIC (Staphylococcus aureus) | MIC [1] | MIC (Candida albicans) | MIC (Klebsiella pneumoniae) | MIC [2] | MIC (Escherichia coli) | SMILES
1 | inactive | 6.25 µg/mL (≈ 18.4 µM) | inactive | 12.5 µg/mL (≈ 36.7 µM) | inactive | inactive | inactive | COc1ccc([C@H]2COc3c(ccc(O)c3CC=C(C)C)C2)c(O)c1
2 | inactive | 5 µg/mL | 50 µg/mL | inactive | 2.5 µg/mL | 1.25 µg/mL | 5 µg/mL | CN[C@@H]1[C@H](O[C@H]2[C@H](O[C@H]3[C@H](O)[C@@H](O)[C@H](N=C(N)N)[C@@H](O)[C@@H]3N=C(N)N)O[C@@H](C)[C@]2(O)C=O)O[C@@H](CO)[C@H](O)[C@H]1O.CN[C@@H]1[C@H](O[C@H]2[C@H](O[C@H]3[C@H](O)[C@@H](O)[C@H](N=C(N)N)[C@@H](O)[C@@H]3N=C(N)N)O[C@@H](C)[C@]2(O)C=O)O[C@@H](CO)[C@H](O)[C@H]1O.O=S(=O)(O)O.O=S(=O)(O)O.O=S(=O)(O)O [STREPTOMYCIN SULFATE]
3 | inactive | 12.5 µg/mL (≈ 23 µM) | inactive | inactive | inactive | inactive | inactive | O=C1c2c(O)cc(O)cc2OC(c2ccc(O)cc2)C1C1C(=O)c2c(O)cc(O)cc2OC1c1ccc(O)cc1 (stereo unspecified) [CHAMAEJASMIN]
